Experiment [1] has as its target T1, full-length proMMP9(1-707) (SEQ ID NO:1) (Homo sapiens, UniProt P14780, R574P).
T1 construct: made in house; host or cells: HEK293 (proMMP9, secreted); E. coli (MMP3)
In words: proMMP9/MMP3 P126 Activation Assay. Type of experiment: biochemical. To be noted: proMMP9(1-707) from HEK293 cells activated by catalytic MMP3. The protocol:
proMMP9/MMP3 P126 Activation Assay
The reaction volume was 50 μL. […] Reactivity of residual MMP3 towards P-126 substrate was minimal under these conditions.

For experiment [2], the target named is T2, proMMP9(67-444;ΔFnII) (SEQ ID NO:5) (Homo sapiens, UniProt P14780, DEL216-390).
T2 construct: start methionine (N); made in house; host or cells: E. coli BL21(DE3) RIL
T2 sequence (P14780 with tags, fused parts or gaps DEL216-390): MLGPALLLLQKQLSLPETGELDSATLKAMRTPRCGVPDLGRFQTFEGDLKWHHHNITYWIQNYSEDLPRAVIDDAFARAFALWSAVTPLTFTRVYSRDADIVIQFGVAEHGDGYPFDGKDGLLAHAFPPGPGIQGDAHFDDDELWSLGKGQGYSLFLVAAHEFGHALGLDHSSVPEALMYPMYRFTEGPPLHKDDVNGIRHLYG
The experiment can be described thus: ThermoFluor with proMMP9(67-444;ΔFnII). To be noted: read-out: proMMP9(67-444; ΔFnII) (SEQ ID NO: 5) binding. The protocol: (§1) The ThermoFluor® (TF) assay is a 384-well plate-based binding assay that measures thermal stability of proteins (Biomol Screen 2001, 6, 429-40; Biochemistry 2005, 44, 5258-66). The experiments were carried out using instruments available from Johnson & Johnson Pharmaceutical Research & Development, LLC. TF dye used in all experiments was […] (1,8-ANS) (Invitrogen: A-47).
(§2) Compounds were arranged in a pre-dispensed plate (Greiner Bio-one: 781280), wherein compounds were serially diluted in 100% DMSO across 11 columns within a series. Columns 12 and 24 were used as DMSO reference and contained no compound. For multiple compound concentration-response experiments, the compound aliquots (50 nL) were robotically predispensed directly into black 384-well polypropylene PCR microplates (Abgene: TF-0384/k) using a Cartesian Hummingbird liquid handler (DigiLab, Holliston, Mass.). Following compound dispense, protein and dye solutions were added to achieve the final assay volume of 3 μL. The assay solutions were overlayed with 1 μL of silicone oil (Fluka, type DC 200: 85411) to prevent evaporation.
(§3) Assay plates were robotically loaded onto a thermostatically controlled PCR-type thermal block and then heated from 40 to 90° C. at a ramp-rate of 1° C./min for all experiments. Fluorescence was measured by continuous illumination with UV light (Hamamatsu LC6) supplied via fiber optics and filtered through a band-pass filter (380-400 nm; >6 OD cutoff). Fluorescence emission of the entire 384-well plate was detected by measuring light intensity using a CCD camera (Sensys, Roper Scientific) filtered to detect 500±25 nm, resulting in simultaneous and independent readings of all 384 wells. A single image with 20-sec exposure time was collected at each temperature, and the sum of the pixel intensity in a given area of the assay plate was recorded vs temperature and fit to standard equations to yield the Tm (J Biomol Screen 2001, 6, 429-40).
(§4) Thermodynamic parameters necessary for fitting compound binding for each proMMP were estimated by differential scanning calorimetry (DSC) and from ThermoFluor® data. The heat capacity of unfolding for each protein was estimated from the molecular weight and from ThermoFluor® dosing data.
ThermoFluor® with proMMP9(67-444;ΔFnII) (SEQ ID NO:5)
The protein sample preparations had to include a desalting buffer exchange step via a PD-10 gravity column (GE Healthcare). The desalting buffer exchange was performed prior to diluting the protein to the final assay concentration of 3.5 μM proMMP9(67-444;ΔFnII) (SEQ ID NO:5). The concentration of proMMP9(67-444;ΔFnII) (SEQ ID NO:5) was determined spectrophotometrically based on a calculated extinction coefficient of ε280=33900 M^−1cm^−1, a calculated molecular weight of 22.6 kDa, and calculated pI of 5.20. ThermoFluor® reference conditions were defined as follows: 80 μg/mL (3.5 μM) proMMP9(67-444;ΔFnII) (SEQ ID NO:5), 50 μM 1,8-ANS, pH 7.0 Buffer (50 mM HEPES pH 7.0, 100 mM NaCl, 0.001% Tween-20, 2.5 mM MgCl2, 300 μM CaCl2). The thermodynamic parameters for proMMP9(67-444;ΔFnII) (SEQ ID NO:5) are as follows: Tm (° C.)=63 (+/−0.1), ΔUH(Tm) (cal mol^−1)=105000(+/−5000), ΔUS(Tm) (cal mol^−1 K^−1)=450, […].
For orientation: DSF heats the sample and reads unfolding from a dye or from intrinsic fluorescence.

In experiment [3] the target is T3, proMMP9(20-445;ΔFnII) (SEQ ID NO:6) (Homo sapiens, UniProt P14780, DEL216-390).
T3 construct: start methionine (N); made in house; host or cells: E. coli BL21(DE3) RIL
T3 sequence (P14780 with tags, fused parts or gaps DEL216-390): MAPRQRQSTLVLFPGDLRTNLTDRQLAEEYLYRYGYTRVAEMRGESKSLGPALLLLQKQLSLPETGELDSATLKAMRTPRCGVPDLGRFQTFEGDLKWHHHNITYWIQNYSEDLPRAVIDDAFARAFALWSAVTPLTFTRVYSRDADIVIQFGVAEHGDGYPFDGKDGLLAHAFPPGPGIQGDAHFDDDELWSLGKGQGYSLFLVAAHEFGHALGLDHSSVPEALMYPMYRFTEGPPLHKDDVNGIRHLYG
In words: ThermoFluor with proMMP9(20-445;ΔFnII). As to conditions: read-out: proMMP9(20-445; ΔFnII) (SEQ ID NO: 6) binding. The protocol:
as §1, §2, §3, §4
ThermoFluor® with proMMP9(20-445;ΔFnII) (SEQ ID NO:6)
The protein sample preparations included a desalting buffer exchange step via a PD-10 gravity column (GE Healthcare). The desalting buffer exchange was performed prior to diluting the protein to the final assay concentration of 2.8 μM proMMP9(20-445;ΔFnII) (SEQ ID NO:6). The concentration of proMMP9(20-445;ΔFnII) (SEQ ID NO:6) was determined spectrophotometrically based on a calculated extinction coefficient of ε280=39880 M^−1cm^−1, a calculated molecular weight of 28.2 kDa, and calculated pI of 5.5. ThermoFluor® reference conditions were define as follows: 80 μg/mL (2.8 μM) proMMP9(20-445;ΔFnII) (SEQ ID NO:6), 50 μM 1,8-ANS, pH 7.0 Buffer (50 mM HEPES pH 7.0, 100 mM NaCl, 0.001% Tween-20, 2.5 mM MgCl2, 300 μM CaCl2). The thermodynamic parameters for proMMP9(20-445;ΔFnII) (SEQ ID NO:6) are as follows: Tm (° C.)=72 (+/−0.1), ΔUH(Tm) (cal mol^−1)=160000(+/−5000), ΔUS(Tm) (cal mol^−1 K^−1)=434, ΔUCp (cal mol^−1 K^−1)=2400.

Structures can show the parent of a compound that is named as a salt.

T1 sequence (P14780 20-707 R574P): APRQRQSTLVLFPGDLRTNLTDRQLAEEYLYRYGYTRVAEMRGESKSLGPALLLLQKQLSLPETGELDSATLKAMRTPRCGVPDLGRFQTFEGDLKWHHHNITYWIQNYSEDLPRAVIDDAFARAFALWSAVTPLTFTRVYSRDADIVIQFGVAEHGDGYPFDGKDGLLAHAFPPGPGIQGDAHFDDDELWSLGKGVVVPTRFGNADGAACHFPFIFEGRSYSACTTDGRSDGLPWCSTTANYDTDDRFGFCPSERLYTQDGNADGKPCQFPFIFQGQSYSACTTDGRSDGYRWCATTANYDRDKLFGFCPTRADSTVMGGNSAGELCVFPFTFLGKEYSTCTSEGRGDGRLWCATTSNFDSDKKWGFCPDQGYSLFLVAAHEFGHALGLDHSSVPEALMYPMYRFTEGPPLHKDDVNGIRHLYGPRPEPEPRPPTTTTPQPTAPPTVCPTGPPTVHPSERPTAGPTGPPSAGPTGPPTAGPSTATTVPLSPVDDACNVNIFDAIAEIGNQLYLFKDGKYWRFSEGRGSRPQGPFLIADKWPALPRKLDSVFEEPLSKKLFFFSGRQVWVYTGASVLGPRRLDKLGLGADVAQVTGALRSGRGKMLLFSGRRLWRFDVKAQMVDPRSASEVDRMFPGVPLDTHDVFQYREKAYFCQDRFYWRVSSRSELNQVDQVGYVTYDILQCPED

Broadly, the IC50 is the concentration needed to halve the response being measured. A higher IC50 goes with weaker potency in that assay. Compound `COc1ccncc1Nc1nc(-c2ccc(OCCN3CCC(F)CC3)cc2)cs1` [Example 35, 4-(4-(2-(4-fluoropiperidin-1-yl)ethoxy)phenyl)-N-(4-methoxypyridin-3-yl)thiazol-2-amine.TFA] came in with a 50% inhibitory concentration (IC50) in experiment [1] of 780 nM. Further, the Kd in experiment [2] is 1000 nM; in experiment [3], 4300 nM.
On the same counts, the results for `CC(C)Oc1ccc(F)cc1Nc1nc(-c2ccc(OCCN3CCOCC3)cc2)cs1` [Example 65, N-(5-fluoro-2-isopropoxyphenyl)-4-(4-(2-morpholinoethoxy)phenyl)thiazol-2-amine.TFA] are ≥ 20000 nM, 4900 nM and > 19000 nM.
For `CC(C)Oc1ccc(C(N)=O)cc1Nc1nc(-c2ccc(C3=CCNCC3)cc2)cs1` [Example 16, 4-Isopropoxy-3-((4-(4-(1,2,3,6-tetrahydropyridin-4-yl)phenyl)thiazol-2-yl)amino)benzamide.TFA], in that order: 49 nM, 33 nM and 14 nM.
On the same counts, the results for `COc1ccc(F)cc1Nc1nc(-c2ccc(OCCN3CCN(C4CC4)CC3)cc2)cs1` [Example 70, 4-(4-(2-(4-cyclopropylpiperazin-1-yl)ethoxy)phenyl)-N-(5-fluoro-2-methoxyphenyl)thiazol-2-amine.TFA] are 480 nM, 2100 nM and > 76000 nM.
Take `CC(C)Oc1ccc(S(N)(=O)=O)cc1Nc1nc(-c2ccc(N3CCN(C(C)C)CC3)cc2)cs1` [Example 5, 4-Isopropoxy-3-((4-(4-(4-isopropylpiperazin-1-yl)phenyl)thiazol-2-yl)amino)benzenesulfonamide.TFA]: half-maximal inhibition in experiment [1] (IC50) required 130 nM.
The same measure, in the same setting: in the case of `CC(C)Oc1ccc(S(N)(=O)=O)cc1Nc1nc(-c2ccc(C3CCN(C(C)C)CC3)cc2)cs1` [Example 27, 4-Isopropoxy-3-((4-(4-(1-isopropylpiperidin-4-yl)phenyl)thiazol-2-yl)amino)benzenesulfonamide.TFA] it was 64 nM.
In experiment [1], `NS(=O)(=O)c1ccc(OC(F)(F)F)c(Nc2nc(-c3ccc(OCCN4CCC(F)CC4)cc3)cs2)c1` [Example 41, 3-((4-(4-(2-(4-fluoropiperidin-1-yl)ethoxy)phenyl)thiazol-2-yl)amino)-4-(trifluoromethoxy)benzenesulfonamide.TFA] displayed an IC50 of 620 nM. Further, the Kd in experiment [2] stood at 180 nM; in experiment [3] it was 330 nM.
On the same counts, the results for `CCOc1ccncc1Nc1nc(-c2ccc(C3=CCN(C)CC3)cc2)cs1` [Example 21, N-(4-Ethoxypyridin-3-yl)-4-(4-(1-methyl-1,2,3,6-tetrahydropyridin-4-yl)phenyl)thiazol-2-amine] are 57 nM, > 76000 nM and 400 nM.
On the same counts, the results for `CC(C)Oc1ccc(S(N)(=O)=O)cc1Nc1nc(-c2ccc(CN3CCC(F)CC3)cc2)cs1` [Example 55, 3-((4-(4-((4-fluoropiperidin-1-yl)methyl)phenyl)thiazol-2-yl)amino)-4-isopropoxybenzenesulfonamide.TFA] are 140 nM, 53 nM and 30 nM.
On the same counts, the results for `COc1ccc(F)cc1Nc1nc(-c2ccc(CN3CCN(C4CC4)CC3)cc2)cs1` [Example 60, 4-(4-((4-cyclopropylpiperazin-1-yl)methyl)phenyl)-N-(5-fluoro-2-methoxyphenyl)thiazol-2-amine.TFA] are 930 nM, 9400 nM and 35000 nM.
Turning to `CCN1CCC(c2ccc(-c3csc(Nc4cc(S(N)(=O)=O)ccc4OC(C)C)n3)cc2)CC1` [Example 26, 3-((4-(4-(1-Ethylpiperidin-4-yl)phenyl)thiazol-2-yl)amino)-4-isopropoxybenzenesulfonamide.TFA], the IC50 in experiment [1] was 44 nM. For the same compound, the Kd stood at 46 nM in experiment [2] and 25 nM in experiment [3].
For `COc1ccc(F)cc1Nc1nc(-c2ccc(OCCN3CCOCC3)cc2)cs1` [Example 66, N-(5-fluoro-2-methoxyphenyl)-4-(4-(2-morpholinoethoxy)phenyl)thiazol-2-amine.TFA], in that order: 1800 nM, 2900 nM and > 19000 nM.
For `COc1ccc(F)cc1Nc1nc(-c2ccc(CN3CCOCC3)cc2)cs1` [Example 64, N-(5-fluoro-2-methoxyphenyl)-4-(4-(morpholinomethyl)phenyl)thiazol-2-amine.TFA], in that order: 2000 nM, 6200 nM and 48000 nM.
On the same counts, the results for `CC(C)Oc1ccc(C(N)=O)cc1Nc1nc(-c2ccc(OCCN3CCC(F)(F)CC3)cc2)cs1` [Example 32, 3-((4-(4-(2-(4,4-Difluoropiperidin-1-yl)ethoxy)phenyl)thiazol-2-yl)amino)-4-isopropoxybenzamide.TFA] are 430 nM, 390 nM and 100 nM.
Compound `CCN1CC=C(c2ccc(-c3csc(Nc4cc(S(N)(=O)=O)ccc4OC(C)C)n3)cc2)CC1` [Example 14, 3-((4-(4-(1-Ethyl-1,2,3,6-tetrahydropyridin-4-yl)phenyl)thiazol-2-yl)amino)-4-isopropoxybenzenesulfonamide.TFA] registered an IC50 in experiment [1] of 34 nM.
With `CC(C)Oc1ccc(S(N)(=O)=O)cc1Nc1nc(-c2ccc(C3CCNCC3)cc2)cs1` [Example 24, 4-Isopropoxy-3-((4-(4-(piperidin-4-yl)phenyl)thiazol-2-yl)amino)benzenesulfonamide.TFA], it took 130 nM to reach half-maximal inhibition in experiment [1] (IC50).
